A short description of data set [1]: Acute oral toxicity (LD50) in the mouse. In kind it is in vivo. To be noted: for LD50: mouse, in vivo, po, Maus.
In data set [2] the test system is Candida albicans (Robin) Berkhout No 20/M. The experiment in a line: Pseudomycelium and mycelium phase test with Candida albicans (minimal inhibitory concentration, 100 % inhibition). In kind it is cell-based. As to conditions: microaerophilic, 2 days, 37°C; for MIC: Candida albicans, 48 h, read-out: MHKMyzelph. From the text:
Pseudomyzel- und Myzelphasentest mit Candida albicans: • Dieser Test berücksichtigt, daß C. albicans in vivo nicht nur Sproßzellen, sondern auch Pseudomyzel und echtes Myzel ausbilden kann (Dimorphie). In vitro wird die Ausbildung aller Wachstumsphasen dieses Keimes und der Einfluß von antimyzetisch wirksamen Substanzen in folgender Weise geprüft: Candida albicans (Robin) Berkhout No 20/M (Stamm der Mykothek, Nordmark-Werke GmbH) wird mit der Impföse einerseits auf die Oberfläche A des Nährmediums (Brain Heart Infusion, Difco) und andererseits bei B als Stichkultur angeimpft (Figur).
Im Bereich der Stichkultur wird zusätzlich ein Deckglas C aufgelegt (mikroaerophile Bedingungen). Die Petrischale D enthält im Nährmedium eine geometrisch abgestufte Verdünnungsreihe der jeweiligen Prüfsubstanz. Nach Inkubation dieser Testplatten (2 Tage, 37°C) sind in präparatefreien Kontrollplatten im aeroben Berzirk A ausschließlich Sproßzellen (Hefephase), im mikroaerophilen Bezirk B ausschließlich Pseudohyphen und echte Hyphen gewachsen.
Als minimale Hemmkonzentrationen wurden diejenigen Konzentrationsstufen des Prüfpräparates bezeichnet, bei denen eine 100 %ige Hemmung des jeweiligen Pilzwachstums zu beobachten war.
Diese Testanordnung ermöglicht es, zwischen der minimalen Hemmkonzentration der Hefephase (MHKHefephase) ) und der MHK der Pseudomyzelphase bzw. M^yzelphase (MHKMyzelDhase) für Candida albicans zu unterscheiden.
Während die MHK-Werte für die Hefephase bei über 128 µg/ml liegen, ergeben sich für die Mycelphase äußerst niedrige MHK-Werte, wie aus der Tabelle 1 hervorgeht.

In data set [3] the test system is T. violaceum. Put plainly: Agar dilution test against dermatophytes. It counts as cell-based. To be noted: Trichophyton violaceum; T. violaceum No. 10; read-out: MHK. From the text:
(§1) Die antimikrobielle Wirksamkeit in vitro gegen Dermatophyt wurde im Agar-Dilutionstest (Lit.: P. Klein "Bakteriologische Grundlagen der chemotherapeutischen Laboratoriumspraxis") ermittelt. Das Ergebnis dieser Untersuchungen am Beispiel der Verbindung Nr. 3 zeigt Tabelle 2.
In general terms: Agar dilution tests growth on a series of plates holding different concentrations.

Data set [4] relates to M. audouinii. The experiment in a line: Agar dilution test against dermatophytes. In kind it is cell-based. To be noted: Microsporum audouinii; M. audouinii No. 4; read-out: MHK.
Text: as §1

The test system of data set [5] is M. canis. Put plainly: Agar dilution test against dermatophytes. It counts as cell-based. As to conditions: Microsporum canis, read-out: MHK.
Text: as §1

The subject of data set [6] is E. floccosum. Put plainly: Agar dilution test against dermatophytes. In kind it is cell-based. To be noted: Epidermophyton floccosum; E. floccosum No. 157; read-out: MHK.
Text: as §1

Data set [7] deals with M. ferrugineum. Put plainly: Agar dilution test against dermatophytes. It counts as cell-based. To be noted: M. ferrugineum No. 5; read-out: MHK.
Text: as §1

Data set [8] relates to T. mentagroph. Put plainly: Agar dilution test against dermatophytes. In kind it is cell-based.
Text: as §1

Data set [9] deals with T. schoenleinii. The experiment in a line: Agar dilution test against dermatophytes. It counts as cell-based. To be noted: T. schoenleinii No. 9; read-out: MHK.
Text: as §1

In brackets after ≈: the same amount, converted by molar mass. Structures can show the parent of a compound that is named as a salt. Where two headings read alike, the source gives them in different places.

By LD50 is commonly meant the dose expected to kill half of the subjects tested. Lower therefore signals a more toxic substance. Consider `OC(Cn1cncn1)(c1ccc(Cl)cc1)c1ccc(Cl)cc1` [Beispiel 1, 1,1-Bis-(4-chlorphenyl)-2-(1.2.4-triazol-1-yl)--äthan-1-ol], for which the LD50 in data set [1] is over 1000 mg/kg. For the same compound, the MIC in data set [2] was under 0.125 µg/mL.

Regarding `OC(Cn1cncn1)(c1ccc(Cl)cc1)c1ccc(Cl)cc1` [Beispiel 2, 1,1-Bis-(4-chlorphenyl)-2-(1.2.4-triazol-1-yl)--äthan-1-ol-hydrochlorid], the “LD50 (Maus) p.o.” value in data set [1] was over 1000 mg/kg. For the same compound, the MHKMyzelph. in data set [2] is <0,125 µg/ml.

As for `OC(Cn1cncn1)(c1ccc(Cl)cc1)c1ccc(Cl)cc1Cl` (centres unmarked) [Beispiel 3, 1-(4-Chlorphenyl)-1-(2,4-dichlorphenyl)-2-(1,2,4-triazol-1-yl)-äthan-1-ol], the MIC was found to be 2 µg/mL (≈ 5.43 µM) in data set [3]; 0.25 µg/mL (≈ 0.678 µM) in data set [4]; 4 µg/mL (≈ 10.9 µM) in data set [5] (M. canis No. 167); 2 µg/mL (≈ 5.43 µM) in data set [5] (M. canis No. 168); 8 µg/mL (≈ 21.7 µM) in [5] (M. canis No. 169); 16 µg/mL (≈ 43.4 µM) in [6]. Moreover, the MIC in data set [7] was 0.5 µg/mL (≈ 1.36 µM); in data set [8] (T. mentagroph. No. 172, read-out: MHK), 0.25 µg/mL (≈ 0.678 µM); in data set [9], 0.25 µg/mL (≈ 0.678 µM); in data set [2], under 0.125 µg/mL. Further, the MHK in data set [8] (T. mentagroph. No. 173) was 0,25 µg/ml. Moreover, the “LD50 (Maus) p.o.” value in [1] is given as over 4000 mg/kg.

Take `OC(Cn1cncn1)(c1ccc(Cl)cc1)c1ccc(Cl)cc1Cl` (centres unmarked) [Beispiel 4, 1-(4-Chlorphenyl)-1-(2,4-dichlorphenyl)-2-(1.2.4--triazol-1-yl)-äthan-1-ol-hydrochlorid]: the “LD50 (Maus) p.o.” value in data set [1] is given as over 1000 mg/kg. Further, the MHKMyzelph. in data set [2] is given as <0,125 µg/ml.

With `OC(Cn1cncn1)(c1ccc(Cl)cc1)c1ccc(Cl)cc1Cl` (centres unmarked) [Beispiel 5, 1-(4-Chlorphenyl)-1-(2,4-dichlorphenyl)-2-(1.2.4--triazol-1-yl)-äthan-1-ol-nitrat], the “LD50 (Maus) p.o.” value in [1] is over 1000 mg/kg. Also, the MHKMyzelph. in data set [2] is reported as <0,125 µg/ml.

In [1], `OC(Cn1cncn1)(c1ccccc1)c1ccccc1Cl` (centres unmarked) [Beispiel 6, 1-Phenyl-1-(2-chlorphenyl)-2-(1.2.4-triazol-1-yl)--äthan-1-ol-hydrochlorid] showed a 50% lethal dose (LD50) of over 1000 mg/kg. In addition, in [2], the MIC is under 0.125 µg/mL.

Consider `OC(Cn1cncn1)(c1ccccc1)c1ccc(Cl)cc1` (centres unmarked) [Beispiel 7, 1-Phenyl-1-(4-chlorphenyl)-2-(1.2.4-triazol-1-yl)-äthan--1-ol-hydrochlorid], for which the “LD50 (Maus) p.o.” value in [1] was over 1000 mg/kg.

Consider `OC(Cn1cncn1)(c1ccccc1)c1ccc(Cl)cc1` (centres unmarked) [Beispiel 8, 1-Phenyl-1-(4-chlorphenyl)-2-(1.2.4-triazol-1-yl)--äthan-1-ol-nitrat], for which the LD50 in data set [1] was over 1000 mg/kg. In addition, in data set [2], the MIC was under 0.125 µg/mL.

`OC(Cn1cncn1)(c1ccccc1)c1ccc(Cl)cc1Cl` (centres unmarked) [Beispiel 9, 1-Phenyl-1-(2,4-dichlorphenyl)-2-(1.2.4-triazol-1-yl)--äthan-1-ol] returned an LD50 in [1] of over 1000 mg/kg. In addition, the MIC in data set [2] was under 0.125 µg/mL.

On to `OC(Cn1cncn1)(c1ccccc1)c1ccc(Cl)cc1Cl` (centres unmarked) [Beispiel 10, 1-Phenyl-1-(2,4-dichlorphenyl)-2-(1.2.4-triazol-1-yl)--äthan-1-ol-hydrochlorid], for which the “LD50 (Maus) p.o.” value in data set [1] is over 1000 mg/kg. Further, in [2], the MHKMyzelph. is on record as <0,125 µg/ml.

`OC(Cn1cncn1)(c1ccccc1)c1ccc(Cl)cc1Cl` (centres unmarked) [Beispiel 11, 1-Phenyl-1-(2,4-dichlorphenyl)-2-(1.2.4-triazol-1-yl)--äthan-1-ol-nitrat]: in data set [1], the “LD50 (Maus) p.o.” value is over 1000 mg/kg. Besides, the MHKMyzelph. in data set [2] is on record as <0,125 µg/ml.

For the compound `OC(Cn1cncn1)(c1ccc(Cl)cc1)c1ccccc1Cl` (centres unmarked) [Beispiel 12, 1-(2-Chlorphenyl)-1-(4-chlorphenyl)-2-(1.2.4-triazol--1-yl)-äthan-1-ol-hydrochlorid], the LD50 in [1] is over 1000 mg/kg. Also, in data set [2], the MIC turned out to be 1 µg/mL.

`OC(Cn1cncn1)(c1ccccc1Cl)c1ccc(Cl)cc1Cl` (centres unmarked) [Beispiel 13, 1-(2-Chlorphenyl)-1-(2,4-dichlorphenyl)-2-(1.2.4-triazol-1-yl)-äthan-1-ol] showed an LD50 in data set [1] of over 1000 mg/kg. For the same compound, in data set [2], the MIC is 1 µg/mL (≈ 2.71 µM).

For the compound `OC(Cn1cncn1)(c1ccccc1Cl)c1ccc(Cl)cc1Cl` (centres unmarked) [Beispiel 14, 1-(2-Chlorphenyl)-1-(2,4-dichlorphenyl)-2-(1.2.4-triazol-1-yl)-äthan-1-ol-hydrochlorid], the “LD50 (Maus) p.o.” value in data set [1] was over 1000 mg/kg. The compound also returned an MHKMyzelph. in [2] of 1 µg/mL.

As to `OC(Cn1cncn1)(c1cccc(Cl)c1)c1ccc(Cl)cc1Cl` (centres unmarked) [Beispiel 15, 1-(3-Chlorphenyl)-1-(2,4-dichlorphenyl)-2-(1.2.4-triazol-1-yl)-äthan-1-ol], the LD50 in data set [1] was over 1000 mg/kg. Also, in data set [2], the MHKMyzelph. is <0,125 µg/ml.

Regarding `OC(Cn1cncn1)(c1cccc(Cl)c1)c1ccc(Cl)cc1Cl` (centres unmarked) [Beispiel 16, 1-(3-Chlorphenyl)-1-(2,4-dichlorphenyl)-2-(1.2.4-triazol-1-yl)-äthan-1-ol-hydrochlorid], the “LD50 (Maus) p.o.” value in data set [1] is over 1000 mg/kg. Also, the MHKMyzelph. in [2] was determined as 1 µg/mL.

Values taken from EP0036153A1, “1,1-Diphenyl-2-(1,2,4-triazol-1-yl)-ethan-1-oles as antimycotic agents” (BASF Aktiengesellschaft, priority 1980, dated 1981).
